Our source for the GI50 and TGI values is PubChem BioAssay (NCI).

Several values for one entry are separate records, joined by “and”; a condition that tells them apart may be missing. Identical values can stand only once.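 Where inhibition never reached the appropriate level, the endpoint shown equals the highest concentration tested. Otherwise, values were interpolated linearly from a five-concentration, 48-hour dose response in 96-well plates. The concentration for 50% growth inhibition is given as GI50. TGI is the concentration that stops growth completely.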

Holding throughout (assay): NCI-60 cell line screen, 48 h
Experiment [1] concerns EKVX NSCLC.
Experiment [2] concerns LOX IMVI melanoma.
Experiment [3] concerns SN12C renal.
The test system of experiment [4] is UACC-62 melanoma.
Experiment [5] deals with HT29 colon.
Experiment [6] deals with K-562 leukemia.
The subject of experiment [7] is SNB-19 CNS.
For experiment [8], the system named is U251 CNS.
Experiment [9] deals with OVCAR-8 ovarian.
Experiment [10] has as its system ACHN renal.

As to `NC(=O)[C@@H](CC1CC1)[C@@H](CCC(F)(F)F)C(=O)N[C@H]1N=C(c2ccccc2)c2cccc(F)c2NC1=O`, the GI50 was more than 100 µM in [1]; 48 µM in experiment [2]; more than 100 µM in experiment [3]; more than 100 µM in experiment [4]; more than 100 µM in [5]; 46.9 µM in experiment [6]. Further, the GI50 was more than 100 µM in experiment [7], more than 100 µM in experiment [8], more than 100 µM in experiment [9] and 66 µM in experiment [10]. Also, the TGI in experiment [1], in [2], in experiment [3], in [4], in [5] and in [6] was more than 100 µM throughout. In addition, the TGI in experiment [7], in experiment [8], in [9] and in [10] was more than 100 µM each time.
On to `CNNC(=N\S(=O)(=O)c1cc(C)c(Cl)cc1SCc1ccccc1)/N=C/c1ccc([N+](=O)[O-])s1`, for which the GI50 in experiment [1] was more than 29.6 µM; in [2], more than 77.2 µM; in experiment [3], more than 100 µM; in experiment [4], 47.9 µM; in experiment [5], 27.4 µM; in experiment [6], 28.4 µM. In addition, the GI50 in experiment [7], in [8], in experiment [9] and in [10] was more than 100 µM each time. The TGI in experiment [1], in experiment [2], in [3], in experiment [4], in experiment [5] and in experiment [6] was more than 100 µM in each case. For the same molecule, the TGI in experiment [7], in [8], in experiment [9] and in experiment [10] was more than 100 µM throughout.
Turning to `N/C(=N\NS(=O)(=O)c1ccccc1)Oc1ccc(Br)cc1Br`, the TGI in experiment [1], in experiment [2], in experiment [3], in experiment [4], in experiment [5] and in experiment [6] was more than 100 µM throughout. Besides, the TGI in experiment [7], in experiment [8], in [9] and in experiment [10] was more than 100 µM in each case.
As to `CSc1ncc(Br)c(Sc2nc(N)nc3nc[nH]c23)n1`, the GI50 in experiment [1] was 3.07 µM; in [2], 0.816 µM; in experiment [3] it was 3.8 µM; in [4], 2.48 µM; in experiment [5], 4.09 µM; in experiment [6] it was 2.01 µM. Further, the GI50 in [7] is 22.3 µM; in experiment [8], 10.3 µM; in [9], 3.78 µM; in [10] it was 4.5 µM. In addition, the TGI in experiment [1] amounted to 55.1 µM; in experiment [2], 17.7 µM; in experiment [3], 36.5 µM; in experiment [4] it was 12.2 µM; in [5], 60.5 µM; in experiment [6] it was 10.1 µM. For the same molecule, the TGI in [7] was more than 100 µM; in experiment [8], 57 µM; in [9], more than 100 µM; in [10], 43.6 µM.
With `CC(C)(O)/C=C/C(=O)[C@](C)(O)[C@H]1[C@H](O)C[C@@]2(C)[C@@H]3CC=C4[C@@H](C[C@H](O)C(=O)C4(C)C)[C@]3(C)C(=O)C[C@]12C`, the GI50 in [1] is 0.477 µM; in experiment [2] it was 0.0441 µM; in experiment [3], 0.355 µM; in experiment [4] it was 0.0736 µM; in experiment [5], 0.0623 µM; in [6] it was 0.0608 µM. Also, the GI50 in experiment [7] was 0.0476 µM; in [8], 0.105 µM; in experiment [10], 0.197 µM and 1.28 µM. The TGI in experiment [1] was 0.833 µM and 3.47 µM; in experiment [2], 0.198 µM and 0.193 µM; in experiment [3], 28 µM; in [4], 0.947 µM and 2.44 µM; in [5] it was 18.3 µM; in experiment [6], 37 µM. The TGI in [7] was 0.349 µM and 0.951 µM; in experiment [8], 0.419 µM and 0.322 µM; in experiment [9], 19.9 µM; in experiment [10] it was 0.931 µM and 8.45 µM.
`CC(C)c1nc(N(C)S(C)(=O)=O)nc(-c2ccc(F)cc2)c1/C=C/[C@@H](O)C[C@@H](O)CC(=O)O`: the GI50 is more than 100 µM in experiment [1]; 21.2 µM in experiment [2]; 56.2 µM in experiment [3]; 42.1 µM in experiment [4]; more than 100 µM in [5]; more than 100 µM in experiment [6]. Further, the GI50 in [7] is 48.2 µM; in experiment [8] it was 18.9 µM; in experiment [9] it was more than 85.4 µM; in [10] it was 34.2 µM. Besides, the TGI in experiment [1], in experiment [2], in [3], in [4], in experiment [5] and in [6] was more than 100 µM in each case. In addition, the TGI in experiment [7], in [8], in experiment [9] and in experiment [10] was more than 100 µM throughout.
